Patent US20110195425A1, “SYSTEMS AND METHODS FOR DIAGNOSING PARASITE INFECTIONS” (priority 2010, published 2011)
Where “and” joins values, the source holds several entries; their conditions need not be identical. Identical values can stand only once.

Experiments:
[1] = biological target: T1, α-amylase (Homo sapiens, UniProt P0DUB6); test: α-Amylase inhibition saliva screening (2-chloro-p-nitrophenol-maltotriose substrate, absorbance 405 nm); format: biochemical; conditions: for Ave (α-amylase assay reading): average of four readings; for α-amylase assay single reading (absorbance at 405 nm): saliva, test compound prepared at 5,000 ppm, 37° C., replicate readings
T1 sequence (P0DUB6 16-511): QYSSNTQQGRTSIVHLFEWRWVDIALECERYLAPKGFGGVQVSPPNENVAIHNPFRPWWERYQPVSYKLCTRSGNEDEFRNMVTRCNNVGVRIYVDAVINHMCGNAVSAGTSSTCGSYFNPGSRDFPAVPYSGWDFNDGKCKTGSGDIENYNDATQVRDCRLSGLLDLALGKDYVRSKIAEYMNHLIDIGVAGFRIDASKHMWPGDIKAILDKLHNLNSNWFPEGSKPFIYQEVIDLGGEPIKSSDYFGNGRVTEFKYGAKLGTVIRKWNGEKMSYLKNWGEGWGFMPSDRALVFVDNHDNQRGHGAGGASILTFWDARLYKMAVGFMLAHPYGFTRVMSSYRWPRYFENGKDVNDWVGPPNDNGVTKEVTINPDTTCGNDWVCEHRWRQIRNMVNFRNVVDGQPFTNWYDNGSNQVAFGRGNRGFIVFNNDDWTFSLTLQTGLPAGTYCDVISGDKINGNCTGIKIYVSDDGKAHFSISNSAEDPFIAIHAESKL
Excerpt: Enzymatic activity of α-amylase on the substrate yields 2-chloro-p-nitrophenol, which can be measured spectrophotometrically at 405 nm. The amount of α-amylase activity present in the experimental sample is directly proportional to the increase in absorbance at 405 nm.

[2] = test system: peroxidase; test: Peroxidase assay in saliva (Amplex Red); format: biochemical; conditions: single compounds at 500 ppm; pooled and unpooled saliva; 30 minutes; FIGS. 26-29
Procedure: To determine the effect of various GRAS compounds as inhibitors of peroxidase activity, a standard assay using Amplex® Red (Life Technologies), which releases a fluorescent oxidation product.
The test compounds, such as GRAS materials or cocktails of same, were prepared at a concentration of 500 ppm in distilled water. For the assay, 50 μl samples of test compounds were mixed with 20-30 μl of saliva (either “pooled” or “unpooled”) prior to the addition of Amplex® Red. Following the mixture of the test compounds with saliva, […] Amplex® Red/HRP working solution (See Protocol for Invitrogen Assay #A22188, which is incorporated herein in its entirety), which has a concentration of 100 μM of Amplex® Red, is added to the test compound/saliva mixture. […] Reactions were allowed to run for 30 minutes during these assays.

Row | Molecule | Ave (α-amylase assay reading) ([1]; 0 min) | α-amylase assay single reading (absorbance at 405 nm) ([1]; 0 min) | Ave (α-amylase assay reading) ([1]; 5 min) | α-amylase assay single reading (absorbance at 405 nm) ([1]; 5 min) | Ave (α-amylase assay reading) ([1]; 15 min) | α-amylase assay single reading (absorbance at 405 nm) ([1]; 15 min) | peroxidase inhibition [2] | α-amylase assay single reading (absorbance at 405 nm) ([1]; 0 min, sulfate hydrate) | α-amylase assay single reading (absorbance at 405 nm) ([1]; 5 min, sulfate hydrate) | α-amylase assay single reading (absorbance at 405 nm) ([1]; 15 min, sulfate hydrate)
1 | Aluminum potassium sulfate dodecahydrate [CDI-42] | 0.92 | 0.80 and 1.13 and 0.90 and 0.84 | 1.85 | 1.65 and 2.15 and 1.80 and 1.81 | 2.29 | 2.37 and 2.38 and 2.25 and 2.17 | significant peroxidase inhibition capabilities | – | – | –
2 | Cn1c(=O)c2c(ncn2C)n(C)c1=O [CDI #33, Caffeine] | – | – | – | – | – | – | significant peroxidase inhibition capabilities | – | – | –
3 | Aluminum sulfate hydrate [CDI-34] | 0.40 | – | 0.50 | – | 0.56 | – | – | 0.40 (2×) and 0.36 and 0.45 | 0.49 and 0.50 (2×) and 0.52 | 0.53 and 0.61 and 0.54 and 0.56
4 | COc1ccc(O)c(C(C)(C)C)c1 [CDI-039, 3-tert--butyl-hydroxyanisole] | – | – | – | – | – | – | significant peroxidase inhibition capabilities | – | – | –
